Experimental data as given in patent publication US6365572B1, “Low molecular weight peptide derivatives as inhibitors of the laminin/nidogen interaction” (Aventis Pharma Deutschland GmbH, priority 1999, dated 2002).
Starred links: 1 amine or outer side, 2 acyl side, 3 side chain; linkers in the order of their positions; H or OH if unused. Non-standard residues stand in square brackets, D forms with d. Residues, ends and D or L forms follow the SMILES beside them. *: point of attachment. X2 = O=C([C@@H]1[C@H](c2ccccc2)CCN1[*:1])[*:2]; Pro(3R-Ph) = O=C(O)[C@H]1NCC[C@@H]1c1ccccc1; Dip = N[C@H](C(=O)O)C(c1ccccc1)c1ccccc1; 2Nal = N[C@@H](Cc1ccc2ccccc2c1)C(=O)O; d2Nal = N[C@H](Cc1ccc2ccccc2c1)C(=O)O; βAsp = O=C(O)[C@H](CC(=O)[*:2])N[*:1]; Glutaryl = O=C(CCCC(=O)[*:2])[*:1]; hPhe = N[C@@H](CCc1ccccc1)C(=O)O; 3Pal = N[C@@H](Cc1cccnc1)C(=O)O; Cit = NC(=O)NCCC[C@H](N)C(=O)O; NH(3-hydroxypropyl) = OCCCN*; Suc = O=C(CCC(=O)[*:2])[*:1]; Tle = CC(C)(C)[C@H](N)C(=O)O; X1 = CC(=O)c1ccccc1C(=O)*

The compounds below were run against T1, laminin/nidogen interaction (laminin P1, recombinantly produced human nidogen) (Homo sapiens, UniProt P14543) (assay: HTS screening assay (time-resolved fluorescence), inhibition of laminin/nidogen binding). Settings: results table 1.3, synthesized compounds 1 to 43; read-out: IC50.
T1 construct: made in house; host or cells: HEK-293
T1 sequence (P14543 29-1247): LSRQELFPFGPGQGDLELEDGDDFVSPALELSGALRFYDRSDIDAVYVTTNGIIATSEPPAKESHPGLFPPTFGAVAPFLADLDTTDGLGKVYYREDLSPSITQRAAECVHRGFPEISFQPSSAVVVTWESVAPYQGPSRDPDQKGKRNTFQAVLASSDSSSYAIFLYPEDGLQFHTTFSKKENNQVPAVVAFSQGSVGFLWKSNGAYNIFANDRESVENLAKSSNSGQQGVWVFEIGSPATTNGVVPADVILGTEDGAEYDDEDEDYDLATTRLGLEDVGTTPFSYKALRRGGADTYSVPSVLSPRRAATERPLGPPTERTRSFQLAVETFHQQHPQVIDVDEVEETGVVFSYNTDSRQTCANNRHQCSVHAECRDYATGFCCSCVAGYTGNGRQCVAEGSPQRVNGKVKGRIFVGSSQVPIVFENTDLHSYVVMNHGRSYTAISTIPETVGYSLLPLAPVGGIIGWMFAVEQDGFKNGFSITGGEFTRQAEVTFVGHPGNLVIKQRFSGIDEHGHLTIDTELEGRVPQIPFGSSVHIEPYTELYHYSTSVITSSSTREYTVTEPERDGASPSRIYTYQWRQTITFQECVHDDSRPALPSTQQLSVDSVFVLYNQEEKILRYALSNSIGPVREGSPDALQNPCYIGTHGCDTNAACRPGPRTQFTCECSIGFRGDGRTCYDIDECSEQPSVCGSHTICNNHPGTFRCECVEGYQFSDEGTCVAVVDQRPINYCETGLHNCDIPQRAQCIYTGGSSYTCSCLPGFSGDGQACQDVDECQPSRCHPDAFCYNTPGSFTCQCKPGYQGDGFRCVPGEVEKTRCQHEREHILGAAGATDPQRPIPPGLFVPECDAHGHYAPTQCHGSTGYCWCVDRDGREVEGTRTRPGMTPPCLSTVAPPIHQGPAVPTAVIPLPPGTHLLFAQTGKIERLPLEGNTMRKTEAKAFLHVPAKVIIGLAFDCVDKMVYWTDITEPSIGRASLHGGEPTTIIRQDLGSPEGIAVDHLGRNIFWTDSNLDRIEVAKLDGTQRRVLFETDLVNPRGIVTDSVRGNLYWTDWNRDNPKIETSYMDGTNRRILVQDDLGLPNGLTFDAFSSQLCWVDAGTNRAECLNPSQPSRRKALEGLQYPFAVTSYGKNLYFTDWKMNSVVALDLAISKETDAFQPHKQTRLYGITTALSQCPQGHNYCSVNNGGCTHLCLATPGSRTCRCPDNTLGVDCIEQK
Experimental: 5) The compound stocks were preincubated with nidogen (10 μl compound stock to 90 μl nidogen solution) and the assay was performed as described in the attached protocol, yielding a final screening concentration of 2.7 μM per compound. The isolation of laminin P1 from human placenta, human nidogen from transfected HEK-293 cells and mouse laminin γ1III 3-5 from HEK-293 cells is described in WO 98/31709. 3.1.1. HTS screening assay (highly sensitive assay variant): Time-Resolved Fluorescence Assay Coating of test tubes Microtiter plates (for example FluoroNunc®) were coated with 75 μl of a 0.1 μg/ml solution of laminin P1 (in 0.159 g of Na2CO3, 0.293 g of NaHCO3, 0.02 g of NaN3/liter, pH 9.2) at room temperature for 1 hour. The solution was then tipped off, and free binding sites were blocked by incubation with 0.5% BSA (in 7.9 g of NaCl, 1.2 g of Na2HPO4, 0.31 g of KCl, 0.23 g of NaH2PO4, 0.04% Tween 20/liter, pH 7.2) at room temperature for 0.5 hour. Completion of the blocking reaction was followed by decantation of the solution and washing once with 250 μl of washing buffer (PBS/0.04% Tween). Sequential inhibition In parallel with the coating, a preincubation of 85-100 μl of a 0.25 nM nidogen solution (recombinantly produced human nidogen) with inhibitor or standard was carried out in a separate reaction vessel (1 hour at room temperature in 7.9 g of NaCl, 1.2 g of Na2HPO4, 0.31 g of KCl, 0.23 g of NaH2PO4, 0.04% Tween 20/liter, 0.5% BSA, pH 7.2). 75 μl of the preincubation (nidogen+inhibitor or standard) were transferred into the coated wells of the microtiter plate and incubated at room temperature for 1 hour. This was followed by washing twice with PBS/0.04% Tween. Detection of the bound nidogen took place by incubation (at room temperature) for 1 hour with 75 μl of a specific antibody preparation obtained from yolks of eggs from a chicken immunized with human nidogen. The IgY fraction was used in a dilution of 1:500 in PBS/0.04% Tween. The complex of nidogen and specifically bound antibodies was, after washing twice with PBS/0.04% Tween, detected by adding anti-chicken IgY-biotin (75 μl of a 1:2500 dilution; Promega, Madison, Wis. 53711, 608-274-4330). An incubation time of 1 hour and washing twice with PBS/0.04% Tween were followed for this purpose by incubation with streptavidin-europium (Wallac; 1 hour at room temperature) and washing twice with PBS/0.04% Tween. It was finally possible, after adding 100 μl of enhancement solution (Wallac) and shaking for 5 minutes, to measure a fluorescence signal in a Victor multilabel counter using the europium protocol. The relation between the amount, of bound nidogen in the solutions with inhibitor and that of nidogen without added inhibitor was found.

Row | SMILES | IC50
1 | CC(C)[C@H](NC(=O)[C@H](C)NC(=O)[C@H](CC(N)=O)NC(=O)[C@@H](NC(=O)[C@@H](N)CC(=O)O)C(c1ccccc1)c1ccccc1)C(=O)NCC(=O)NCCCO [Compound 15, L-Aspartyl-L-(3,3-diphenyl)alanyl-L-asparaginyl-L-alanyl-L-valyl-glycine-3-hydroxypropylamide] (H-D[Dip]NAVG-{NH(3-hydroxypropyl)}) | 26300 nM
2 | CC(C)[C@H](NC(=O)[C@H](CO)NC(=O)[C@H](CC(N)=O)NC(=O)[C@@H]1[C@H](c2ccccc2)CCN1C(=O)[C@@H](N)CC(=O)O)C(=O)NCC(=O)NCCCO [Compound 16, L-Aspartyl-L-(3S)-phenylprolyl-L-asparaginyl-L-seryl-L-valyl-glycine-3-hydroxypropylamide] (H-D[X2]NSVG-{NH(3-hydroxypropyl)}) | 4280 nM
3 | CC(C)[C@H](NC(=O)[C@H](CO)NC(=O)[C@H](CC(N)=O)NC(=O)[C@@H]1[C@@H](c2ccccc2)CCN1C(=O)[C@@H](N)CC(=O)O)C(=O)NCC(=O)NCCCO [Compound 17, L-Aspartyl-L-(3R)-phenylprolyl-L-asparaginyl-L-seryl-L-valyl-glycine-3-hydroxypropylamide] (H-D[Pro(3R-Ph)]NSVG-{NH(3-hydroxypropyl)}) | 2270 nM
4 | CC(C)[C@H](NC(=O)[C@H](CO)NC(=O)[C@H](CC(N)=O)NC(=O)[C@H](Cc1cccnc1)NC(=O)[C@@H](N)CC(=O)O)C(=O)NCC(=O)NCCCO [Compound 18, L-Aspartyl-L-3-(3-pyridyl)alanyl-L-asparaginyl-L-seryl-L-valyl-glycine-3-hydroxypropylamide] (H-D[3Pal]NSVG-{NH(3-hydroxypropyl)}) | 25000 nM
5 | CC(C)[C@H](NC(=O)[C@H](CO)NC(=O)[C@H](CC(N)=O)NC(=O)[C@@H](Cc1ccc2ccccc2c1)NC(=O)[C@@H](N)CC(=O)O)C(=O)NCC(=O)NCCCO [Compound 19, L-Aspartyl-D-3-(2-naphthyl)alanyl-L-asparaginyl-L-seryl-L-valyl-glycine-3-hydroxypropylamide] (H-D[d2Nal]NSVG-{NH(3-hydroxypropyl)}) | 25000 nM
6 | CC(C)[C@H](NC(=O)[C@H](CO)NC(=O)[C@H](CC(N)=O)NC(=O)[C@H](CCc1ccccc1)NC(=O)[C@@H](N)CC(=O)O)C(=O)NCC(=O)NCCCO [Compound 20, L-Aspartyl-L-homophenylalanyl-L-asparaginyl-L-seryl-L-valyl-glycine-3-hydroxypropylamide] (H-D[hPhe]NSVG-{NH(3-hydroxypropyl)}) | 32500 nM
7 | CC(C)[C@H](NC(=O)[C@H](CO)NC(=O)[C@H](CC(N)=O)NC(=O)[C@H](Cc1ccc2ccccc2c1)NC(=O)[C@@H](N)CC(=O)O)C(=O)NCC(N)=O [Compound 21, L-Aspartyl-L-3-(2-naphthyl)alanyl-L-asparaginyl-L-seryl-L-valyl-glycine-amide] (H-D[2Nal]NSVG-NH2) | 340 nM
8 | CC(C)[C@H](NC(=O)[C@H](CO)NC(=O)[C@H](CC(N)=O)NC(=O)[C@H](Cc1ccc2ccccc2c1)NC(=O)[C@@H](N)CC(=O)O)C(N)=O [Compound 22, L-Aspartyl-L-3-(2-naphthyl)alanyl-L-asparaginyl-L-seryl-L-valine-amide] (H-D[2Nal]NSV-NH2) | 180 nM
9 | CC(=O)c1ccccc1C(=O)N[C@@H](Cc1ccc2ccccc2c1)C(=O)N[C@@H](CC(N)=O)C(=O)N[C@@H](CO)C(=O)N[C@H](C(=O)NCC(=O)NCCCO)C(C)C [Compound 23] (X1-[2Nal]NSVG-{NH(3-hydroxypropyl)}) | 1490 nM
10 | CC(C)[C@H](NC(=O)[C@H](CO)NC(=O)[C@H](CC(N)=O)NC(=O)[C@H](Cc1ccc2ccccc2c1)NC(=O)C[C@H](N)C(=O)O)C(=O)NCC(=O)NCCCO [Compound 25, L-β-Aspartyl-L-3-(2-naphthyl)alanyl-L-asparaginyl-L-seryl-L-valyl-glycine-3-hydroxypropylamide] (βAsp-[2Nal]NSVG-{NH(3-hydroxypropyl)}) | 230 nM
11 | CC(C)[C@H](NC(=O)[C@H](CO)NC(=O)[C@H](CC(N)=O)NC(=O)[C@H](Cc1ccc2ccccc2c1)NC(=O)CCCC(=O)O)C(=O)NCC(=O)NCCCO [Compound 26, Glutaryl-L-3-(2-naphthyl)alanyl-L-asparaginyl-L-seryl-L-valyl-glycine-3-hydroxypropylamide] (Glutaryl-[2Nal]NSVG-{NH(3-hydroxypropyl)}) | 450 nM
12 | CC(C)[C@H](NC(=O)[C@H](CO)NC(=O)[C@H](CC(N)=O)NC(=O)[C@H](Cc1ccc2ccccc2c1)NC(=O)[C@H](CC(=O)O)NC(=O)[C@@H](N)CCCNC(N)=O)C(=O)NCC(=O)NCCCO [Compound 27, L-Citrulyl-L-aspartyl-L-3-(2-naphthyl)alanyl-L-asparaginyl-L-seryl-L-valyl-glycine-3-hydroxypropylamide] (H-[Cit]D[2Nal]NSVG-{NH(3-hydroxypropyl)}) | 440 nM
13 | CC(C)[C@H](NC(=O)[C@H](CO)NC(=O)[C@H](CC(N)=O)NC(=O)[C@H](Cc1ccc2ccccc2c1)NC(=O)[C@H](CC(=O)O)NC(=O)[C@@H](N)CCCNC(=N)N)C(=O)NCC(=O)NCCCO [Compound 28, L-Arginyl-L-aspartyl-L-3-(2-naphthyl)alanyl-L-asparaginyl-L-seryl-L-valyl-glycine-3-hydroxypropylamide] (H-RD[2Nal]NSVG-{NH(3-hydroxypropyl)}) | 150 nM
14 | CC(C)[C@H](NC(=O)[C@H](CO)NC(=O)[C@H](CC(N)=O)NC(=O)[C@H](Cc1ccc2ccccc2c1)NC(=O)[C@H](CC(=O)O)NC(=O)[C@@H](N)CCCCN)C(=O)NCC(=O)NCCCO [Compound 29, L-Lysyl-L-aspartyl-L-3-(2-naphthyl)alanyl-L-asparaginyl-L-seryl-L-valyl-glycine-3-hydroxypropylamide] (H-KD[2Nal]NSVG-{NH(3-hydroxypropyl)}) | 240 nM
15 | CC(C)[C@H](NC(=O)[C@H](C)NC(=O)[C@H](CC(N)=O)NC(=O)[C@H](Cc1ccc2ccccc2c1)NC(=O)CCC(=O)O)C(=O)NCC(=O)NCCCO [Compound 30, Succinyl-L-3-(2-naphthyl)alanyl-L-asparaginyl-L-alanyl-L-valyl-glycine-3-hydroxypropylamide] (Suc-[2Nal]NAVG-{NH(3-hydroxypropyl)}) | 250 nM
16 | C[C@H](NC(=O)[C@H](CC(N)=O)NC(=O)[C@H](Cc1ccc2ccccc2c1)NC(=O)CCC(=O)O)C(=O)N[C@H](C(N)=O)C(C)(C)C [Compound 32, Succinyl-L-3-(2-naphthyl)alanyl-L-asparaginyl-L-alanyl-L-2-tert.butyl-glycine-amide] (Suc-[2Nal]NA[Tle]-NH2) | 170 nM
